Experimental data reported in patent US20170190671A1, “BIS(ARYL)CATECHOL DERIVATIVES AS HERBICIDES” (E I DU PONT DE NEMOURS AND COMPANY, priority 2014, published 2017).

What was measured:
Assay in all cases: Test C preemergence
Format in all cases: in vivo
[1] = test system: pigweed (Amaranthus retroflexus); details: Amaranthus retroflexus, pre-emergence, 336 h, preemergence, scale 0 to 100, read-out: Plant response rating, Pigweed
Summary of the method: (§1)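 Seeds sown in a loam soil and sand blend were treated preemergence; plants in peat-moss/vermiculite medium were sprayed at the 1- to 4-leaf stage (2-18 cm). Chemicals were in a non-phytotoxic surfactant-containing solvent. After 13 to 15 days in a greenhouse, injury was visually rated against controls on a 0-100 scale.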

[2] = test system: waterhemp (common waterhemp, Amaranthus rudis); details: Amaranthus tuberculatus, pre-emergence, preemergence, scale 0 to 100, read-out: Plant response rating, Waterhemp
Summary of the method: as §1

[3] = test system: soybean (Glycine max); details: Glycine max, pre-emergence, preemergence, scale 0 to 100, read-out: Plant response rating, Soybean
Summary of the method: as §1

[4] = test system: morningglory (Ipomoea coccinea); details: Ipomoea, pre-emergence, 336 h, preemergence, scale 0 to 100, read-out: Plant response rating, Morningglory
Summary of the method: as §1

[5] = test system: lambsquarters (Chenopodium album); details: Chenopodium album, pre-emergence, 336 h, preemergence, scale 0 to 100, read-out: Plant response rating, Lambsquarters
Summary of the method: as §1

[6] = test system: Italian ryegrass (Lolium multiflorum); details: Lolium multiflorum, pre-emergence, 336 h, preemergence, scale 0 to 100, read-out: Plant response rating, Ryegrass, Italian
Summary of the method: as §1

[7] = test system: velvetleaf (Abutilon theophrasti); details: Abutilon theophrasti, pre-emergence, preemergence, scale 0 to 100, read-out: Plant response rating, Velvetleaf
Summary of the method: as §1

[8] = test system: corn (Zea mays); details: Zea mays, pre-emergence, 336 h, preemergence, scale 0 to 100
Summary of the method: as §1

[9] = test system: yellow nutsedge (Cyperus esculentus); details: Cyperus, pre-emergence, 336 h, preemergence, scale 0 to 100, read-out: Plant response rating, Nutsedge, Yellow
Summary of the method: as §1

[10] = test system: ragweed (common ragweed, Ambrosia elatior); details: Ambrosia artemisiifolia, pre-emergence, 336 h, preemergence, scale 0 to 100, read-out: Plant response rating, Ragweed
Summary of the method: as §1

[11] = test system: johnsongrass (Sorghum halepense); details: Sorghum halepense, pre-emergence, 336 h, preemergence, scale 0 to 100, read-out: Plant response rating, Johnsongrass
Summary of the method: as §1

[12] = test system: barnyardgrass (Echinochloa crus-galli); details: Echinochloa crus-galli, pre-emergence, preemergence, scale 0 to 100, read-out: Plant response rating, Barnyardgrass
Summary of the method: as §1

[13] = test system: galium (catchweed bedstraw, Galium aparine); details: Galium, pre-emergence, 336 h, preemergence, scale 0 to 100, read-out: Plant response rating, Galium
Summary of the method: as §1

[14] = test system: blackgrass (Alopecurus myosuroides); details: Alopecurus myosuroides, pre-emergence, 336 h, preemergence, scale 0 to 100, read-out: Plant response rating, Blackgrass
Summary of the method: as §1

`N#Cc1cccc(Oc2ncc(Cl)cn2)c1Oc1ncc(Cl)cn1` [Compound 3, 2,3-bis[(5-chloro-2-pyrimidinyl)oxy]benzonitrile] showed a pest or weed control at 31 g/ha ([1]; 31 g ai/ha) of 100%, a pest or weed control at 62 g/ha ([1]; 62 g ai/ha) of 100% and a pest or weed control at 125 g/ha ([1]; 125 g ai/ha) of 100%. It also gave a pest or weed control at 31 g/ha ([2]; 31 g ai/ha) of 100%, a pest or weed control at 62 g/ha ([2]; 62 g ai/ha) of 100% and a pest or weed control at 125 g/ha ([2]; 125 g ai/ha) of 100%. The pest or weed control at 250 g/ha ([2]; 250 g ai/ha) was 100%, the plant injury at 31 g/ha ([3]; 31 g ai/ha) was 40% and the plant injury at 62 g/ha ([3]; 62 g ai/ha) was 40%. It also gave a plant injury at 125 g/ha ([3]; 125 g ai/ha) of 85%, a plant injury at 250 g/ha ([3]; 250 g ai/ha) of 95% and a pest or weed control at 31 g/ha ([4]; 31 g ai/ha) of 45%. It also gave a pest or weed control at 62 g/ha ([4]; 62 g ai/ha) of 98%, a pest or weed control at 125 g/ha ([4]; 125 g ai/ha) of 100% and a pest or weed control at 31 g/ha ([5]; 31 g ai/ha) of 100%. It also gave a pest or weed control at 62 g/ha ([5]; 62 g ai/ha) of 100%, a pest or weed control at 125 g/ha ([5]; 125 g ai/ha) of 100% and a pest or weed control at 31 g/ha ([6]; 31 g ai/ha) of 5%. For the same compound, the pest or weed control at 62 g/ha ([6]; 62 g ai/ha) was 35%, the pest or weed control at 125 g/ha ([6]; 125 g ai/ha) was 90% and the pest or weed control at 250 g/ha ([6]; 250 g ai/ha) was 90%. For the same compound, the pest or weed control at 31 g/ha ([7]; 31 g ai/ha) was 80%, the pest or weed control at 62 g/ha ([7]; 62 g ai/ha) was 100% and the pest or weed control at 125 g/ha ([7]; 125 g ai/ha) was 100%. The pest or weed control at 250 g/ha ([7]; 250 g ai/ha) was 100%, the Corn plant response rating (crop injury, 0 = no effect, 100 = complete kill) at 31 g/ha ([8]; 31 g ai/ha) was 20% and the Corn plant response rating (crop injury, 0 = no effect, 100 = complete kill) at 62 g/ha ([8]; 62 g ai/ha) was 70%. For the same compound, the Corn plant response rating (crop injury, 0 = no effect, 100 = complete kill) at 125 g/ha ([8]; 125 g ai/ha) was 85%, the pest or weed control at 31 g/ha ([9]; 31 g ai/ha) was 5% and the pest or weed control at 62 g/ha ([9]; 62 g ai/ha) was 15%. For the same compound, the pest or weed control at 125 g/ha ([9]; 125 g ai/ha) was 55%, the pest or weed control at 31 g/ha ([10]; 31 g ai/ha) was 90% and the pest or weed control at 125 g/ha ([10]; 125 g ai/ha) was 90%. For the same compound, the pest or weed control at 250 g/ha ([10]; 250 g ai/ha) was 100%, the pest or weed control at 31 g/ha ([11]; 31 g ai/ha) was 45% and the pest or weed control at 62 g/ha ([11]; 62 g ai/ha) was 75%. It also gave a pest or weed control at 125 g/ha ([11]; 125 g ai/ha) of 100%, a pest or weed control at 31 g/ha ([12]; 31 g ai/ha) of 80% and a pest or weed control at 62 g/ha ([12]; 62 g ai/ha) of 100%. It also gave a pest or weed control at 125 g/ha ([12]; 125 g ai/ha) of 100%, a pest or weed control at 250 g/ha ([12]; 250 g ai/ha) of 100% and a pest or weed control at 31 g/ha ([13]; 31 g ai/ha) of 90%. It also gave a pest or weed control at 62 g/ha ([13]; 62 g ai/ha) of 90%, a pest or weed control at 125 g/ha ([13]; 125 g ai/ha) of 90% and a pest or weed control at 31 g/ha ([14]; 31 g ai/ha) of 70%. It also gave a pest or weed control at 62 g/ha ([14]; 62 g ai/ha) of 90% and a pest or weed control at 125 g/ha ([14]; 125 g ai/ha) of 90%.
